# In PMC6268972, “Antiproliferative, Antimicrobial and Apoptosis Inducing Effects of Compounds Isolated from Inula viscosa” (Molecules, 2012):
# Where two headings read alike, the source gives them in different places.
# How the values were obtained:
# Bacillus cereus = experiment: Microtiter plate dilution MIC, B. cereus; format: cell-based; conditions: 24 h; for MIC: Bacillus cereus, read-out: Minimum inhibitory concentration (MIC) B.c
# Protocol: (§1) The microbial strains used in this study were Escherichia coli (ATCC 10798), Salmonella typhimurium (ATCC14028), Methicillin resistant Staphylococcus aureus (MRSA, Clinical isolate), Bacillus cereus (Toxigenic strain TS), and Candida albicans (ATCC 90028). Bacterial strains were stocked onto nutrient agar slant at 4 °C, and Candida albicans was stocked onto malt agar slant at 4 °C.
# (§2) The microtiter plate dilution method was used to determine the MIC (minimum inhibitory concentration) of compounds under study. Sterile 96-well microplates (Nunc) were used for the assay. Stock compounds were dissolved in DMSO so that the final concentrations in micro wells were less than 1% DMSO and solvent controls were run at these concentrations. Positive controls of penicillin G and tetracycline (Oxoid, Hampshire, UK) were prepared at the following concentrations 2, 4, 8, 16, 31, 62.5, 125, and 250 μg/mL. 1% DMSO was used as a solvent control. Compounds were diluted to twice the desired initial test concentration (250 µg/mL) with Muller Hinton broth (MHB) (Oxoid). All wells, except the first were filled with MHB (50 μL). Compounds (100 μL) were added to the first well and serial two-fold dilutions were made down to the desired minimum concentration (2 μg/mL). An over-night culture of bacteria suspended in MHB was adjusted to turbidity equal to 0.5 McFarland standard. The plates were inoculated with bacterial suspension (50 μL/well) and incubated at 37 °C for 24 h. Then the turbidity was measured using micro-plate reader (Biotek) at 620 nm wavelength. The same procedure was used to determine the antifungal activity of compounds against Candida albicans. The medium used was malt extract broth. The yeast cells were suspended in 0.85% saline, with an optical density equivalent to 0.5 McFarland standard, and diluted 1:100 in malt extract broth to obtain the working concentration. After 24 h incubation with each compound, the turbidity was measured at 530 nm wavelength using a spectrophotometer (Biotek). Percentage inhibition for tested microorganisms was calculated using the following formula:
# (§3) MIC was determined as the lowest concentration of the compound that causes complete inhibition (100%) of each microorganism.
# Salmonella typhimurium = experiment: Microtiter plate dilution MIC, S. typhimurium; format: cell-based; conditions: for MIC: Salmonella enterica, ATCC 14028 / TYPHIMURIUM, read-out: Minimum inhibitory concentration (MIC) S.t
# Protocol: as §1, §2, §3
# Vero cells = experiment: MTT antiproliferative activity assay, Vero; format: cell-based, African green monkey; conditions: for IC50: Chlorocebus sabaeus, Vero, read-out: IC50 Vero
# Protocol: (§4) Hep-2 (larynx carcinoma, ATCC: CCL-23), MCF-7 (breast epithelial adenocarcinoma, ATCC: HTB-22), and Vero (African green monkey kidney, ATCC: CCL-81) cell lines were kindly provided by Dr. Mona Hassuneh (Department of Biological Sciences, University of Jordan). Cells were grown in Minimum Essential Medium Eagle (Gibco, Paisley UK) supplemented with 10% heat inactivated fetal bovine serum (Gibco, Paisley UK), 29 μg/mL L-glutamine, and 40 μg/mL gentamicin. Cells were incubated in a humidified atmosphere of 5% CO2 at 37 °C.
# (§5) The antiproliferative activity of Inula viscosa compounds was measured using the MTT (3-(4,5-dimethylthiazol-2-yl)-2,5-diphenyltetrazolium bromide) assay (Promega, Madison, WI, USA). The assay detects the reduction of MTT by mitochondrial dehydrogenase to blue formazan product, which reflects the normal function of mitochondria and cell viability. Exponentially growing cells were washed and seeded at 17,000 cells/well for Hep-2 cell line and 11,000 cells/ well for MCF-7 cell line (in 200 μL of growth medium) in 96 well microplates (Nunc, Roskilde, Denmark). After 24 h incubation, a partial monolayer was formed then the media was removed and 200 μL of the medium containing the compound (initially dissolved in DMSO) were added and re-incubated for 48 h. Then 100 μL of the medium were aspirated and 15 μL of the MTT solution were added to the remaining medium (100 μL) in each well. After 4 h contact with the MTT solution, blue crystals were formed. One hundred μL of the stop solution were added and incubated further for 1 h.
# (§6) Reduced MTT was assayed at 550 nm using a microplate reader (Biotek, Winooski, VT, USA). Control groups received the same amount of DMSO (0.1%).Untreated cells were used as a negative control while, cells treated with vincristine sulfate were used as a positive control. Eight concentrations (150, 100, 50, 20, 10, 5, 2, and 1 μg/mL) were prepared from each compound and tested against the three cell lines. IC50 values were calculated as the concentrations that show 50% inhibition of proliferation on any tested cell line. Stock solutions of the compounds were dissolved in (DMSO) then diluted with the medium and sterilized using 0.2 μm membrane filters. The toxicity of DMSO was determined and the final dilution of compounds used for treating the cells contained not more than 0.1% (non toxic concentration) DMSO. IC50 values were reported as the average of three replicates. The antiproliferative effect of the tested compounds was determined by comparing the optical density of the treated cells against the optical density of the control (cells treated with media containing 0.1% DMSO).
# [1] = system: Methicillin resistant Staphylococcus aureus (MRSA); experiment: Microtiter plate dilution MIC, MRSA; format: cell-based; conditions: 24 h; for MIC: Staphylococcus aureus, MRSA, read-out: Minimum inhibitory concentration (MIC) MRSA
# Protocol: as §1, §2, §3
# Candida albicans = experiment: Microtiter plate dilution MIC, C. albicans; format: cell-based; conditions: for MIC: Candida albicans, read-out: Minimum inhibitory concentration (MIC) C.a
# Protocol: as §1, §2, §3
# MCF-7 cells = experiment: MTT antiproliferative activity assay, MCF-7; format: cell-based, human; conditions: for IC50: Homo sapiens, read-out: IC50 MCF-7
# Protocol: as §4, §5, §6
# Escherichia coli = experiment: Microtiter plate dilution MIC, E. coli; format: cell-based; conditions: for MIC: Escherichia coli, read-out: Minimum inhibitory concentration (MIC) E.c
# Protocol: as §1, §2, §3
# Hep-2 cells = experiment: MTT antiproliferative activity assay, Hep-2; format: cell-based; conditions: for IC50: Homo sapiens, read-out: IC50 Hep-2
# Protocol: as §4, §5, §6
# [2] = Toxigenic strain TS, 100% inhibition
# [3] = ATCC14028, 24 h, 100% inhibition
# [4] = MTT, 48 h treatment, average of three replicates
# [5] = clinical isolate, 100% inhibition
# [6] = ATCC 90028, malt extract broth, 24 h, 100% inhibition
# [7] = ATCC 10798, 24 h, 100% inhibition
# [8] = ATCC90028, ATCC 90028, malt extract broth, 24 h, 100% inhibition
# [9] = MCF7, MTT, 48 h treatment, average of three replicates
# [10] = ATCC10798, ATCC 10798, 24 h, 100% inhibition
# [11] = HEp-2, MTT, 48 h treatment, average of three replicates
Compound,Minimum inhibitory concentration (MIC) B.c (Bacillus cereus; [2]) [µg/mL],Minimum inhibitory concentration (MIC) S.t (Salmonella typhimurium; [3]) [µg/mL],IC50 Vero (Vero cells; [4]) [µg/mL],"Minimum inhibitory concentration (MIC) MRSA [1, 5] [µg/mL]",Minimum inhibitory concentration (MIC) C.a (Candida albicans; [6]) [µg/mL],IC50 MCF-7 (MCF-7 cells; [4]) [µg/mL],Minimum inhibitory concentration (MIC) E.c (Escherichia coli; [7]) [µg/mL],IC50 Hep-2 (Hep-2 cells; [4]) [µg/mL],MIC (Bacillus cereus; [2]) [µg/mL],MIC (Salmonella typhimurium; [3]) [µg/mL],"MIC [1, 5] [µg/mL]",MIC (Escherichia coli; [10]) [µg/mL],further results
2-Desacetoxyxanthinin,>250,>250,>150,>250,>250,>150,>250,>150,–,–,–,–,–
C=C(C(=O)O)[C@@H]1CC[C@@]2(C)C[C@@H](O)C[C@@](C)(O)[C@@H]2C1 [2α-Hydroxyilicic acid],>250,>250,>150,>250,>250,>150,>250,>150,–,–,–,–,–
COc1cc(O)c2c(c1)O[C@H](c1ccc(O)c(O)c1)[C@@H](OC(C)=O)C2=O [3-O-Acetylpadmatin],>250,>250,>150,>250,>250,>150,>250,>150,–,–,–,–,–
"C=C1C[C@@H]2OC(=O)[C@@H](C)[C@H]2C[C@@H]2[C@@H]1CC[C@@]2(C)O [11α,13-Dihydroinuviscolide]",>250,>250,>150,>250,>250,>150,>250,>150,–,–,–,–,–
COc1c(O)cc2oc(-c3ccc(O)cc3)cc(=O)c2c1O [Hispidulin],–,–,–,–,–,–,–,–,–,–,–,–,"MIC (Bacillus cereus): > 250 µg/mL; MIC (Salmonella typhimurium; 24 h): > 250 µg/mL; IC50 (Vero cells; 48 h): 105 ± 2.35 µg/mL; MIC [1]: > 250 µg/mL; MIC (Candida albicans; ATCC90028, 24 h): > 250 µg/mL; IC50 (MCF-7 cells; MCF7, 48 h): 10.3 ± 1.85 µg/mL; MIC (Escherichia coli; ATCC10798, 24 h): > 250 µg/mL; IC50 (Hep-2 cells; HEp-2, 48 h): 19.5 ± 1.06 µg/mL"
C=C(C(=O)O)[C@@H]1CC[C@@]2(C)CCC[C@@](C)(O)[C@@H]2C1 [Ilicic acid],–,–,–,–,–,–,–,–,> 250,> 250,> 250,> 250,IC50 (Vero cells; [4]): > 150 µg/mL; MIC (Candida albicans; [8]): > 250 µg/mL; IC50 (MCF-7 cells; [9]): > 150 µg/mL; IC50 (Hep-2 cells; [11]): > 150 µg/mL
C=C1C(=O)O[C@H]2CC(=C)[C@H]3CC[C@@](C)(O)[C@@H]3C[C@H]12 [Inuviscolide],–,–,–,–,–,–,–,–,> 250,> 250,> 250,> 250,IC50 (Vero cells; [4]): > 150 µg/mL; MIC (Candida albicans; [8]): > 250 µg/mL; IC50 (MCF-7 cells; [9]): > 150 µg/mL; IC50 (Hep-2 cells; [11]): 148.8 ± 1.25 µg/mL
COc1c(O)cc2oc(-c3ccc(O)c(O)c3)cc(=O)c2c1O [Nepetin],>250,>250,103.54 ± 2.82,250,>250,5.87 ± 1.36,>250,11.33 ± 0.98,–,–,–,–,–
"C[C@@H]1[C@H](O)[C@@H](C)/C=C/C=C/CC/C=C/C=C/C=C/C=C/C(O[C@H]2O[C@H](C)[C@@H](O)[C@H](N)[C@@H]2O)CC2O[C@](O)(CC(O)C(O)CCC(O)CC(O)CC(O)CC(=O)O[C@H]1C)CC(O)C2C(=O)O (stereo partly shown) [Nystatin, reference compound]",–,–,–,–,25,–,–,–,–,–,–,–,–
"CC1(C)S[C@@H]2[C@H](NC(=O)Cc3ccccc3)C(=O)N2[C@H]1C(=O)O [Penicillin G, reference compound]",–,–,–,–,–,–,–,–,> 250,125,> 250,125,–
"CN(C)[C@@H]1C(O)=C(C(N)=O)C(=O)[C@@]2(O)C(O)=C3C(=O)c4c(O)cccc4[C@@](C)(O)[C@H]3C[C@@H]12 [Tetracycline, reference compound]",–,–,–,–,–,–,–,–,2,4,125,150,–
